# Data as given in patent publication US9993492B2, “Lysophospholipids and lysophospholipid analogues against honeybee brood diseases” (University of Graz, priority 2013, dated 2018).
# Like-named read-outs stand apart in the source and are kept apart here.
# Key:
# honeybee larvae = test: LPC tolerance in non-infected artificially reared larvae, mortality until day 12; format: in vivo, Apis mellifera; details: LPC 10 μg/larva on day 1, 2 and 3, no spores, replicates separated by /, Nlarvae 70/48/47/48/40
# Pl-infected larvae = test: In vivo effect of LPC on Pl-infected larvae; design: species or system Apis mellifera; details: LPC 10 μg/larva on day 1, 2 and 3 + 50 spores/larva (ERIC II, strain 233/00) on day 1, replicates separated by /, Nlarvae 71/48/48
# Method: First instar larvae were transferred into plastic queen cups and fed the following diets: On the first day 10 μL of diet containing 6% glucose, 6% fructose, 1% yeast extract and 50% royal jelly were fed. Test substances (1-O-oleoyl-sn-glycero-3-phosphocholine (oleoyl-LPC), stearic acid, lysophosphatidylinositol and linoleic acid) were added to the first diet in amounts of 0.5 to 10 μg/larvae. For infection with spores of Paenibacillus larvae, larvae were grafted into 5 μL of diet containing test substances and subsequently 5 μL of diet with about 50 added Pl spores were given. Larvae were not fed on the second day to assure the consumption of the given diet. On the third day 20 μL of diet containing 7.5% glucose, 7.5% fructose, 1.5% yeast extract and 50% royal jelly were fed. Amounts of 30, 40 and 60 μL of diet composed of 9% glucose, 9% fructose, 2% yeast extract and 50% royal jelly were fed on the 4th, 5th and 6th day (method modified after Aupinel et al. [Aupinel et al. 2005. Bull Insectol 58:107-111]. Larvae were incubated at 34.5° C. and 95% relative humidity which was reduced to 80% on day 7. The mortality was checked daily for the first 7 days and when individuals emerged from queen cups at day 18 after the transfer into cups. To reduce the time for sporulation of Pl in the lab for security reasons, infection tests with Pl spores were stopped at day 7 with some experiments extend to day 12.
# In vivo effect of LPC on Pl-infected larvae: Artificial larval rearing was performed as described above. Larvae were individually infected with a dose of c. 50 spores/larva (ERIC II, strain 233/00) given on the first day. LPC was administered on day 1, 2 and 3 in a dose of 10 μg/d. Mortality was checked daily until d 12.
# Paenibacillus larvae = test: Antimicrobial assay in BHI liquid medium, vegetative forms of Paenibacillus larvae (MIC); format: cell-based; details: for MIC: Paenibacillus larvae
# Method: For the evaluation of certain fatty acids and phospholipids, overnight cultures of vegetative forms of Pl were used (for results see Table 1.1).
# As test organisms, several different strains of Paenibacillus larvae were used.
# Overnight cultures of the vegetative forms of bacteria were prepared in BHI (brain heart infusion) liquid medium.
# From these overnight cultures, an inoculum of 50 μl is added to 1.0 ml of BHI liquid medium to perform the bacterial test in liquid medium. The compound 1-O-oleoyl-sn-glycero-3-phosphocholine (oleoyl-LPC) together with a positive control was then added at concentrations of 2, 5 and 10 ppm and the test tubes were incubated for 24 h at 34.5° C. Then, the extinction of the solution was measured photometrically.
smiles,measurement,setting,value
CCCCCCCC/C=C\CCCCCCCC(=O)OC[C@@H](O)COP(=O)([O-])OCC[N+](C)(C)C [1-O-oleoyl-sn-glycero-3-phosphocholine],Ndead larvae total,honeybee larvae; days 1-12,9/6/5/3/3
same,Ndead larvae day 1,honeybee larvae,0/0/0/0/0
same,Ndead larvae day 2,honeybee larvae,0/2/0/0/0
same,Ndead larvae day 3,honeybee larvae,0/0/3/0/0
same,Ndead larvae day 4,honeybee larvae,1/0/1/0/1
same,Ndead larvae day 5,honeybee larvae,0/0/0/0/0
same,Ndead larvae day 6,honeybee larvae,1/1/0/0/1
same,Ndead larvae day 7,honeybee larvae,0/0/1/0/0
same,Ndead larvae day 8,honeybee larvae,2/0/0/0/0
same,Ndead larvae day 9,honeybee larvae,1/2/0/3/0
same,Ndead larvae day 10,honeybee larvae,2/0/0/0/0
same,Ndead larvae day 11,honeybee larvae,0/1/0/0/1
same,Ndead larvae day 12,honeybee larvae,2/0/0/0/0
same,Ndead larvae total,Pl-infected larvae; days 1-12,26/12/14
same,Ndead larvae day 1,Pl-infected larvae,0/0/0
same,Ndead larvae day 2,Pl-infected larvae,1/0/0
same,Ndead larvae day 3,Pl-infected larvae,3/2/4
same,Ndead larvae day 4,Pl-infected larvae,11/5/8
same,Ndead larvae day 5,Pl-infected larvae,7/2/0
same,Ndead larvae day 6,Pl-infected larvae,1/1/1
same,Ndead larvae day 7,Pl-infected larvae,1/1/0
same,Ndead larvae day 8,Pl-infected larvae,0/0/1
same,Ndead larvae day 9,Pl-infected larvae,0/0/0
same,Ndead larvae day 10,Pl-infected larvae,2/0/0
same,Ndead larvae day 11,Pl-infected larvae,0/1/0
same,Ndead larvae day 12,Pl-infected larvae,0/0/0
same,MIC,"Paenibacillus larvae; 24 h, vegetative forms of Pl, liquid medium, read-out: MIC (ppm)",2 to 5 µg/mL
same,MIC,"Paenibacillus larvae; in vitro, read-out: in vitro Pl inhibitory activity, MIC",2.5 µg/mL
same,MIC,"Paenibacillus larvae; vegetative forms of Pl, liquid medium, read-out: MIC",> 3.8 µM
same,inhibitory / antibacterial activity against Pl (in words),Paenibacillus larvae; in vitro,good in vitro Pl inhibitory activity
